Read-outs that look alike come from different tables or passages of the source.
Experiments:
[1] = test system: HIV-1 infection of TZM-bl cells; test: HIV-1 infectivity enhancement assay, β-galactosidase luminescence; type: cell-based; details: for Rel-EFC: infection relative to EF-C (QCKIKQIINMWQ = 1); for Log10 Infection Rel EFC: log10 of infection relative to EF-C; for Log Infectivity: Log10 infection relative to EF-C, TZM-bl cells, asymmetric std dev errors; for Log10 Infection Rel EF-C: HIV-1 infection of TZM-bl cells; for Abs. Inf.: absolute infection signal, HIV-1 on TZM-bl cells, β-galactosidase luminescence; for Log10 Inf. rel. to EF-C: log10 of HIV-1 infection of TZM-bl cells relative to EF-C (EF-C = 0); for Abs. Infection at 0.26 µM / Abs. Infection at 1.3 µM: mean of n = 3, Figure 4A; for Log10 of Rel to EFC (Feb2021): Log10 of infection relative to EF-C, all peptides of FigS16
[2] = β-sheet content by ATR-FT-IR; type: physicochemical; details: Fig. S7 panel A; β-sheet content by ATR-FT-IR
How it was run: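 Spectra: 64 scans, 2 cm^-1, lyophilized PNF (1 mg/mL source). CR = 100 − 100 × filtrate/original fluorescamine signal; triplicate, ± SD.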

[3] = type: physicochemical; details: for ThT Cat. / ThT-Fluorescence (categorical): ThT-active if fluorescence at least twice the control
How it was run: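 Preformed peptide fibrils (1 mg/mL) mixed with 50 µM ThT in PBS, 15 min at RT, fluorescence ex 440/em 488 nm versus PBS blank, triplicates. Zeta potential: peptides at 1 mg/mL in PBS pH 7.4, aged 1 d at RT, diluted in 1 mM KCl, Smoluchowski from electrophoretic mobility.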

[4] = Fig. S7 panel A (plotted against β-sheet content)
[5] = Log10 of infection rate relative to EF-C, Figure 3A source data
[6] = infection rate relative to EF-C, log10, data of Figure 2D
[7] = infection rate relative to EF-C, log10, source data of Figure 2C
[8] = ThT fluorescence category, 1 if Rel. ThT >2
[9] = Fig. S7 panel B (plotted against CR), rounded to two decimals

Row | Substance | Rel-EFC ([1]; 1.3 µM peptide) | Log10 Infection Rel EFC ([1]; 1.3 µM peptide) | Log Infectivity [1, 4] | Log10 Infection Rel EF-C [1, 5] | Log10 Infection Rel EF-C [1, 6] | Log10 Infection Rel EF-C [1, 7] | b -sheet / % [2] | Tht category (> 2 to blank = +) ([3]; Fig S10 panel D) | Tht category (> 2 to blank = +) ([3]; FigS12 panel A) | ThT Cat, ([3]; FigS12 panel B) | ThT Cat, ([3]; ThT category, 1 if Rel. ThT >2) | ThT Cat. / ThT-Fluorescence (categorical) [3] | Log Infectivity [1, 9] | Abs. Inf. [1] | Log10 Inf. rel. to EF-C [1] | ThT Cat. ([3]; Fig S10 panel E) | ThT Cat. ([3]; ThT category, 1 if Rel. ThT >2) | Log10 of Rel to EFC (Feb2021) [1] | other results
1 | CEFEFQF | 0,01 | -2,28 | -2.283 | -2.28 | -2.283 | -2.283 | 53% | 0 (ThT-inactive (N-Fold <2)) | 0 (ThT-inactive (N-Fold <2)) | 0 (ThT-inactive (N-Fold <2)) | 0 (ThT-inactive (N-Fold <2)) | 0 (ThT-inactive (N-Fold <2)) | – | – | – | – | – | – | ThT Cat. [3, 8]: 0 (ThT-inactive (N-Fold <2))
2 | CEIEIQI | 0,03 | -1,55 | -1.554 | -1.55 | -1.554 | -1.554 | 45% | 1 (ThT. Cat is 1, if Rel. ThT >2) | 1 (ThT. Cat is 1, if Rel. ThT >2) | 1 (ThT. Cat is 1, if Rel. ThT >2) | 1 (ThT. Cat is 1, if Rel. ThT >2) | 1 (ThT. Cat is 1, if Rel. ThT >2) | -1.55 | 633.3 | -1.554 | 1 (ThT. Cat is 1, if Rel. ThT >2) | 1 (ThT. Cat is 1, if Rel. ThT >2) | – | –
3 | CETMYDKILKNLSRSR | 0,02 | -1,72 | -1.716 | -1.72 | -1.716 | -1.716 | 62.1014% | 0 (ThT-inactive (N-Fold <2)) | 0 (ThT-inactive (N-Fold <2)) | 0 (ThT-inactive (N-Fold <2)) | 0 (ThT-inactive (N-Fold <2)) | 0 (ThT-inactive (N-Fold <2)) | -1.72 | 363.3 | -1.716 | 0 (ThT-inactive (N-Fold <2)) | 0 (ThT-inactive (N-Fold <2)) | – | –
4 | CHLHLQL | 0,1 | -1,01 | -1.008 | -1.01 | -1.008 | -1.008 | 49.52% | 1 (ThT. Cat is 1, if Rel. ThT >2) | 1 (ThT. Cat is 1, if Rel. ThT >2) | 1 (ThT. Cat is 1, if Rel. ThT >2) | 1 (ThT. Cat is 1, if Rel. ThT >2) | 1 (ThT. Cat is 1, if Rel. ThT >2) | -1.01 | 2934 | -1.008 | 1 (ThT. Cat is 1, if Rel. ThT >2) | 1 (ThT. Cat is 1, if Rel. ThT >2) | – | Abs. Infection at 0.26 µM ([1]; peptide 0.26 µM): 572.2; Infect 1 0.26 µM ([1]; peptide 0.26 µM, replicate 1, absolute infection signal, Figure 4A): 545.6; Infect 2 0.26 µM ([1]; peptide 0.26 µM, replicate 2, absolute infection signal, Figure 4A): 488.9; Infect 3 0.26 µM ([1]; peptide 0.26 µM, replicate 3, absolute infection signal, Figure 4A): 682.2; Abs. Infection at 1.3 µM ([1]; peptide 1.3 µM): 2934; Infect 1 .3 µM ([1]; peptide 1.3 µM, replicate 1, absolute infection signal, Figure 4A): 3586; Infect 2 1.3µM ([1]; peptide 1.3 µM, replicate 2, absolute infection signal, Figure 4A): 2346; Infect 3 1.3 µM ([1]; peptide 1.3 µM, replicate 3, absolute infection signal, Figure 4A): 2872
5 | CKFC | 0,01 | -1,96 | -1.959 | -1.96 | -1.959 | -1.959 | 38.87% | 0 (ThT-inactive (N-Fold <2)) | 0 (ThT-inactive (N-Fold <2)) | 0 (ThT-inactive (N-Fold <2)) | 0 (ThT-inactive (N-Fold <2)) | 0 (ThT-inactive (N-Fold <2)) | -1.96 | 240 | -1.959 | 0 (ThT-inactive (N-Fold <2)) | 0 (ThT-inactive (N-Fold <2)) | – | –
6 | CKFKFQF | 1,23 | 0,09 | 0.09083 | 0.09 | 0.09083 | 0.09083 | 47.43% | 1 (ThT. Cat is 1, if Rel. ThT >2) | – | – | 1 (ThT. Cat is 1, if Rel. ThT >2) | 1 (ThT. Cat is 1, if Rel. ThT >2) | 0.09 | 20066.66667 | 0.09083 | 1 (ThT. Cat is 1, if Rel. ThT >2) | 1 (ThT. Cat is 1, if Rel. ThT >2) | 0.09 | Abs. Infection at 0.26 µM ([1]; peptide 0.26 µM): 5684; Abs. Infection at 1.3 µM ([1]; peptide 1.3 µM): 20066.66667
7 | CKFKFQFNM | 1,24 | 0,09 | 0.09417 | 0.09 | 0.09417 | 0.09417 | 41% | 1 (ThT. Cat is 1, if Rel. ThT >2) | – | – | 1 (ThT. Cat is 1, if Rel. ThT >2) | 1 (ThT. Cat is 1, if Rel. ThT >2) | 0.09 | 28183.33333 | 0.09417 | 1 (ThT. Cat is 1, if Rel. ThT >2) | 1 (ThT. Cat is 1, if Rel. ThT >2) | 0.09 | –
8 | CKFKFQFNMW | 0,96 | -0,02 | -0.01766 | -0.02 | -0.01766 | -0.01766 | 47.7253% | 1 (ThT. Cat is 1, if Rel. ThT >2) | – | – | 1 (ThT. Cat is 1, if Rel. ThT >2) | 1 (ThT. Cat is 1, if Rel. ThT >2) | – | – | – | – | – | -0.02 | ThT Cat. [3, 8]: 1 (ThT. Cat is 1, if Rel. ThT >2)
9 | CKFKFQFNMWQ | 1,16 | 0,06 | 0.06446 | 0.06 | 0.06446 | 0.06446 | 47.05% | 1 (ThT. Cat is 1, if Rel. ThT >2) | – | – | 1 (ThT. Cat is 1, if Rel. ThT >2) | 1 (ThT. Cat is 1, if Rel. ThT >2) | 0.06 | 26320 | 0.06446 | 1 (ThT. Cat is 1, if Rel. ThT >2) | 1 (ThT. Cat is 1, if Rel. ThT >2) | 0.06 | –
10 | CKFQC | 0,02 | -1,64 | -1.643 | -1.64 | -1.643 | -1.643 | 43.86% | 0 (ThT-inactive (N-Fold <2)) | 0 (ThT-inactive (N-Fold <2)) | 0 (ThT-inactive (N-Fold <2)) | 0 (ThT-inactive (N-Fold <2)) | 0 (ThT-inactive (N-Fold <2)) | -1.64 | 496.7 | -1.643 | 0 (ThT-inactive (N-Fold <2)) | 0 (ThT-inactive (N-Fold <2)) | – | –
11 | CKIKIQIII | 0,98 | -0,01 | -0.01045 | -0.01 | -0.01045 | -0.01045 | 36.7% | 1 (ThT. Cat is 1, if Rel. ThT >2) | – | – | 1 (ThT. Cat is 1, if Rel. ThT >2) | 1 (ThT. Cat is 1, if Rel. ThT >2) | – | 22150 | -0.01045 | – | 1 (ThT. Cat is 1, if Rel. ThT >2) | -0.01 | n-fold Infection, 1.3 µM ([1]; 1.3 µM peptide, n-fold infection): 41 n-fold

Source: publication PMC10447463, “Data-mining unveils structure–property–activity correlation of viral infectivity enhancing self-assembling peptides” (Nature Communications, 2023)
